The source of these data is patent US7855202B2, “Imidazopyridine derivatives as A2B adenosine receptor antagonists” (Laboratorios Almirall, S.A., priority 2005, dated 2010).

The target in the test is T1, human A2B receptor (Homo sapiens, UniProt P29275).
T1 construct: membranes prepared from them
T1 sequence (P29275 1-332): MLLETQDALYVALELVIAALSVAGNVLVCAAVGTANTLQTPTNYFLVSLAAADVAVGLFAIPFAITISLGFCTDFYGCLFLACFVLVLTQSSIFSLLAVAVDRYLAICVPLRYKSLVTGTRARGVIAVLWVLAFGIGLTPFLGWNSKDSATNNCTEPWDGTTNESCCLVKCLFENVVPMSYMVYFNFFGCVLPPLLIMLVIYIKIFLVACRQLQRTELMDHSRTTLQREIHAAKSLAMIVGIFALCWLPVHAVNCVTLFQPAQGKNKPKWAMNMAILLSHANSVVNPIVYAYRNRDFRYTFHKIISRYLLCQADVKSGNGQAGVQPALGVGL
Nature of the test: Adenosine 2B receptor subtype competition radioligand binding assay ([3H]-DPCPX, membranes of HEK293 cells). The conditions noted are these: binding activity, 35 nM [3H]-DPCPX, A2B membranes from HEK293 cells. Here is the method: Adenosine 2B Receptor Subtype Competition Radioligand Binding Assay
A2B membranes were prepared from HEK293 cells stably expressing the human A2B receptor that were purchased from Euroscreen (ES-013-C). Competition assays were carried out incubating in polypropylene 96 well-plates (no 267245, NUNC) containing 2 μl of either 1% DMSO solution, test compound or 100 μM 5′NECA (SIGMA E-2387) for non-specific binding, 100 μg of A2B-membranes (prepared in Tris-HCl 50 mM pH 6.5, MgCl2 10 mM, EDTA 1 mM, benzamidine 0.1 mM; buffer A) and 35 nM [^3H]-DPCPX (TRK1064, 128 Ci/mmol, Amersham), in a total volume of 200 μl of buffer A+2 UI/ml adenosine deaminase, for 60 minutes at room temperature. At the end of the incubation, samples were transferred to a GF/C filter plates (Milipore MAFCNOB50) pretreated for 15 min. with 250 μl of Tris-HCl 50 mM pH 6.5 (Buffer B). Samples were then filtered 4 times with 250 μl of buffer B. Samples were counted using 30 μl of Hisafe II (Perkin Elmer) in a Trilux counter.

Usually Ki stands for a measure of affinity in units of concentration, obtained from inhibition or displacement. Low readings indicate a stronger hold on the target, high ones a looser hold on the target. `O=c1[nH]c2cc(-c3c(F)cncc3F)c(-c3cccnc3)nc2[nH]1` [Example 67, 6-(3,5-Difluoropyridin-4-yl)-5-pyridin-3-yl-1,3-dihydro-2H-imidazo[4,5-b]pyridin-2-one]: the inhibition constant Ki is 26 nM. For the compound `O=C(O)c1ccc(-c2nc3cc(-c4ccncc4F)c(-c4cccnc4)nc3[nH]2)cc1` [Example 11, 4-[6-(3-Fluoropyridin-4-yl)-5-pyridin-3-yl-3H-imidazo[4,5-b]pyridin-2-yl]benzoic acid], the Ki is 8 nM. The figure for `Fc1cnccc1-c1cc2nc(-c3cccnc3)[nH]c2nc1-c1cccnc1` [Example 39, 6-(3-Fluoropyridin-4-yl)-2,5-dipyridin-3-yl-3H-imidazo[4,5-b]pyridine] is 3.8 nM; for `O=c1[nH]c2cc(-c3ccncc3F)c(-c3ncco3)nc2[nH]1` [Example 32, 6-(3-Fluoropyridin-4-yl)-5-(1,3-oxazol-2-yl)-1,3-dihydro-2H-imidazo[4,5-b]pyridin-2-one] it is 24 nM. On to `Fc1cnccc1-c1cc2nc(-c3ccncc3)[nH]c2nc1-c1cccnc1` [Example 12, 6-(3-Fluoropyridin-4-yl)-5-pyridin-3-yl-2-pyridin-4-yl-3H-imidazo[4,5-b]pyridine], for which affinity was put at a Ki of 1.8 nM.

With `CN(C)c1ccc(-c2nc3cc(-c4ccncc4F)c(-c4cccnc4)nc3[nH]2)cc1` [Example 7, N-{4-[6-(3-Fluoropyridin-4-yl)-5-pyridin-3-yl-3H-imidazo[4,5-b]pyridin-2-yl]phenyl}-N,N-dimethylamine], the Ki was 1.7 nM. In turn, `Fc1ccc(-c2nc3cc(-c4c(F)cncc4F)c(-c4cccnc4)nc3[nH]2)cc1` [Example 65, 6-(3,5-Difluoropyridin-4-yl)-2-(4-fluorophenyl)-5-pyridin-3-yl-3H-imidazo[4,5-b]pyridine] gave a Ki of 2.8 nM. Turning to `Fc1ccc(Cc2nc3cc(-c4ccncc4F)c(-c4cccnc4)nc3[nH]2)cc1` [Example 16, 2-(4-Fluorobenzyl)-6-(3-fluoropyridin-4-yl)-5-pyridin-3-yl-3H-imidazo[4,6-b]pyridine], the Ki worked out at 24 nM.

Regarding `Cc1ccc(-c2nc3cc(-c4ccncc4F)c(-c4cccnc4)nc3[nH]2)cc1F` [Example 37, 2-(3-Fluoro-4-methylphenyl)-6-(3-fluoropyridin-4-yl)-5-pyridin-3-yl-3H-imidazo[4,5-b]pyridine], the Ki is 2.2 nM. In turn, `O=c1[nH]c2cc(-c3ccncc3)c(-c3ccncc3F)nc2[nH]1` [Example 23, 5-(3-Fluoropyridin-4-yl)-6-pyridin-4-yl-1,3-dihydro-2H-imidazo[4,5-b]pyridin-2-one] came in with a Ki of 7 nM. In turn, `Fc1cccc(-c2nc3cc(-c4ccncc4F)c(-c4cccnc4)nc3[nH]2)c1` [Example 38, 2-(3-Fluorophenyl)-6-(3-fluoropyridin-4-yl)-5-pyridin-3-yl-3H-imidazo[4,6-b]pyridine] came in with an inhibition constant Ki of 2.8 nM. The compound `Cn1cncc1-c1nc2cc(-c3ccncc3F)c(-c3cccnc3)nc2[nH]1` [Example 46, 6-(3-Fluoropyridin-4-yl)-2-(1-methyl-1H-imidazol-5-yl)-5-pyridin-3-yl-3H-imidazo[4,5-b]pyridine] showed a Ki of 9.5 nM.

The compound `COc1ccc(-c2nc3cc(-c4ccncc4F)c(-c4cccnc4)nc3[nH]2)cc1` [Example 6, 6-(3-Fluoropyridin-4-yl)-2-(4-methoxyphenyl)-6-pyridin-3-yl-3H-imidazo[4,5-b]pyridine] had an inhibition constant Ki of 0.8 nM. The figure for `O=C(O)c1ccc(-c2nc3cc(-c4c(F)cncc4F)c(-c4cccnc4)nc3[nH]2)cc1` [Example 66, 4-[6-(3,5-Difluoropyridin-4-yl)-5-pyridin-3-yl-3H-imidazo[4,5-b]pyridin-2-yl]benzoic acid] is 23 nM.
